One assay has as its target T1, human TLR7 (Homo sapiens, UniProt Q9NYK1).
T1 construct: host or cells: HEK293 (HEK-Blue hTLR7)
T1 sequence (Q9NYK1 27-1049): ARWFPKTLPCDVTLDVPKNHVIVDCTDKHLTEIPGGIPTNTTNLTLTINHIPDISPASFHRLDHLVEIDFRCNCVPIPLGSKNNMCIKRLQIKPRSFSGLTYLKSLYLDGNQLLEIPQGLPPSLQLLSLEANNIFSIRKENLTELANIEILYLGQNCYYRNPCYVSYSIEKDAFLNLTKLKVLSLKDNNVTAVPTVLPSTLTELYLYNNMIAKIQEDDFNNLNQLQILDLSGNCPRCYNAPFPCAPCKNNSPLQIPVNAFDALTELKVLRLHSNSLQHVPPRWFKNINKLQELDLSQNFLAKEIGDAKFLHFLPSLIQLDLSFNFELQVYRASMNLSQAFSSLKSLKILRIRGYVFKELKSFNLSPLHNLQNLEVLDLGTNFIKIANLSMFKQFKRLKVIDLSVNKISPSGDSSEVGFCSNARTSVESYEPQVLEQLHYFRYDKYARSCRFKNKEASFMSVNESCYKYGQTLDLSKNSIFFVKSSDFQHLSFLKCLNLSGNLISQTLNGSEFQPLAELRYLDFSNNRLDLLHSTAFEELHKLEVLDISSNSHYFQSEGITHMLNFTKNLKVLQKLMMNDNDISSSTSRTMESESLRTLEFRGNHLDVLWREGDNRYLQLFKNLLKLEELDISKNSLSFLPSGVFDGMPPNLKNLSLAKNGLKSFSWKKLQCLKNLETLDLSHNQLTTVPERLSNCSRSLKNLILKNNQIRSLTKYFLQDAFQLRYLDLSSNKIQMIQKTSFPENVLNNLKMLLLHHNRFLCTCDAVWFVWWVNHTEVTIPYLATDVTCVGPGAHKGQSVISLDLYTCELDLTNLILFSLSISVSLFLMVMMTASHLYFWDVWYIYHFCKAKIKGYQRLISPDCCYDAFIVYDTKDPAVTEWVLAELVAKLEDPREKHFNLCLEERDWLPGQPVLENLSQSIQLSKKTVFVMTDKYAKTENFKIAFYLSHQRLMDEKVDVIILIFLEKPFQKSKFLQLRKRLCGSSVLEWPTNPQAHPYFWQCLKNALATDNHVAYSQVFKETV
As to the kind of experiment: HEK293-Blue-hTLR-7 cells assay. Format: cell-based. The conditions noted are these: HEK293-Blue-hTLR7 cells, R848 stimulation, 20 hrs, SEAP reporter; read-out: HEK/hTLR7 IC50.

The target in a further assay is T2, human TLR8 (Homo sapiens, UniProt Q9NR97).
T2 sequence (Q9NR97 27-1041): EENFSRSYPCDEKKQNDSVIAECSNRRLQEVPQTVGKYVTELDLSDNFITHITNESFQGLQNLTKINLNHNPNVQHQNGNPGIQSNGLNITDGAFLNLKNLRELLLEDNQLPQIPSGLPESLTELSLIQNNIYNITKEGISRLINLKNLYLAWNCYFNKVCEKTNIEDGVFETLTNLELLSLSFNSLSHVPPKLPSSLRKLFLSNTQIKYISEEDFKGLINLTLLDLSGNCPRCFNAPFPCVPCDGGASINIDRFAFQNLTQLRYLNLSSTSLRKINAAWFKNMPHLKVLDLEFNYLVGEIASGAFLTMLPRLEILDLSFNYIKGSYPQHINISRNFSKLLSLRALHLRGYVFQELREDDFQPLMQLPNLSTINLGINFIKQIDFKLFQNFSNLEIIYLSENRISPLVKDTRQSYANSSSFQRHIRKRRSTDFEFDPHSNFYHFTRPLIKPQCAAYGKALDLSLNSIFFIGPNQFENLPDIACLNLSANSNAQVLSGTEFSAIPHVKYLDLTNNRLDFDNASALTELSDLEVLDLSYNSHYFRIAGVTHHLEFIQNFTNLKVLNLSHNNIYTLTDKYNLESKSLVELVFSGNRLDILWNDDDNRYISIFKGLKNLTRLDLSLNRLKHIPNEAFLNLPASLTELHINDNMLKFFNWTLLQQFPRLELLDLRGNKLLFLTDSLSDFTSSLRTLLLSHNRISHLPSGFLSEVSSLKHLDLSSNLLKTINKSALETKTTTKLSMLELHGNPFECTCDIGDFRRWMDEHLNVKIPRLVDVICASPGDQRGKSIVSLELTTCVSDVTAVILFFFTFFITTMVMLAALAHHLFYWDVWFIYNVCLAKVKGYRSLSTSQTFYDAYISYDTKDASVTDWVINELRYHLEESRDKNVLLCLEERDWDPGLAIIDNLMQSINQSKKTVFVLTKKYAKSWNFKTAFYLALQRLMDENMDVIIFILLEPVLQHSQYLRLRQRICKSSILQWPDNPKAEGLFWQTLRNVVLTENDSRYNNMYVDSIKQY
As to the kind of experiment: HEK293-Blue-hTLR-8 cells assay.

Turning to `C[C@H]1CN(c2ccc(C#N)c3ncccc23)C[C@@H]2CN(c3ccc([C@@H]4CNCCO4)cc3)CCN21` [Example 125, 5-[(4S,9aS)-4-methyl-8-[4-[(2R)-morpholin-2-yl]phenyl]-3,4,6,7,9,9a-hexahydro-1H-pyrazino[1,2-a]pyrazin-2-yl]quinoline-8-carbonitrile], the results for the IC50 on human TLR7 and on human TLR8 were 1 nM and 7 nM, respectively.
The corresponding values for `C[C@@H]1CN(c2ccc(C#N)c3ncccc23)C[C@@H]2CN(Cc3cccc4c3CCNC4)CCN21` [Example 70, 5-[(4R,9aS)-4-methyl-8-(1,2,3,4-tetrahydroisoquinolin-5-ylmethyl)-3,4,6,7,9,9a-hexahydro-1H-pyrazino[1,2-a]pyrazin-2-yl]quinoline-8-carbonitrile] are 11 nM and 12 nM.
Regarding `C[C@@H]1CN(c2ccc(C#N)c3ncccc23)C[C@@H]2CN(Cc3cnc4c(c3)CNCC4)CCN21` [Example 6, 5-[(4R,9aS)-4-methyl-8-(5,6,7,8-tetrahydro-1,6-naphthyridin-3-ylmethyl)-3,4,6,7,9,9a-hexahydro-1H-pyrazino[1,2-a]pyrazin-2-yl]quinoline-8-carbonitrile], the IC50 on human TLR7 and on human TLR8 was 14 nM each time.
With `C[C@@H]1CN(c2ccc(C#N)n3ncc(F)c23)C[C@@H]2CN(Cc3ccc4c(c3)CNCC4)CCN21` [Example 69, 4-[(4R,9aS)-4-methyl-8-(1,2,3,4-tetrahydroisoquinolin-7-ylmethyl)-3,4,6,7,9,9a-hexahydro-1H-pyrazino[1,2-a]pyrazin-2-yl]-3-fluoro-pyrazolo[1,5-a]pyridine-7-carbonitrile], the values for the IC50 at human TLR7 and against human TLR8 were 66 nM and 52 nM, respectively.
For `C[C@@H]1CN(c2ccc(C#N)c3ncccc23)C[C@@H]2CN(c3cc(N4CCNCC4)ccn3)CCN21` [Example 34, 5-[(4R,9aR)-4-methyl-8-(4-piperazin-1-yl-2-pyridyl)-3,4,6,7,9,9a-hexahydro-1H-pyrazino[1,2-a]pyrazin-2-yl]quinoline-8-carbonitrile], the results for the IC50 at human TLR7 and at human TLR8 were 20 nM and 14 nM, respectively.
On the same counts, the results for `C[C@@H]1CN(c2ccc(C#N)c3ncccc23)C[C@@H]2CN(CCc3ccc(N4CC(C)(N)C4)nc3)CCN21` [Example 65, 5-[(4R,9aS)-8-[2-[6-(3-amino-3-methyl-azetidin-1-yl)-3-pyridyl]ethyl]-4-methyl-3,4,6,7,9,9a-hexahydro-1H-pyrazino[1,2-a]pyrazin-2-yl]quinoline-8-carbonitrile] are 19 nM and 28 nM.
On the same counts, the results for `C[C@@H]1CN(c2ccc(C#N)c3ncccc23)C[C@@H]2CN(c3cccc4c3CNC4)CCN21` [Example 9, 5-[(4R,9aS)-8-isoindolin-4-yl-4-methyl-3,4,6,7,9,9a-hexahydro-1H-pyrazino[1,2-a]pyrazin-2-yl]quinoline-8-carbonitrile] are 3 nM and 1 nM.
As for `CO[C@@H]1CN(c2nc(C)cc(N3CCN4[C@@H](C3)CN(c3ccc(C#N)c5ncccc35)C[C@H]4C)n2)C[C@H]1N` [Example 45, 5-[(4R,9aR)-8-[2-[(3R,4R)-3-amino-4-methoxy-pyrrolidin-1-yl]-6-methyl-pyrimidin-4-yl]-4-methyl-3,4,6,7,9,9a-hexahydro-1H-pyrazino[1,2-a]pyrazin-2-yl]quinoline-8-carbonitrile], the IC50 at human TLR7 is 18 nM; on human TLR8, 28 nM.
Take `C[C@@H]1CN(c2ccc(C#N)c3ncccc23)C[C@@H]2CN(Cc3cccc4c3CNCC4)CCN21` [Example 71, 5-[(4R,9aS)-4-methyl-8-(1,2,3,4-tetrahydroisoquinolin-8-ylmethyl)-3,4,6,7,9,9a-hexahydro-1H-pyrazino[1,2-a]pyrazin-2-yl]quinoline-8-carbonitrile]: the values for the IC50 on human TLR7 and on human TLR8 were 45 nM and 21 nM, respectively.
With `C[C@@H]1CN(c2ccc(C#N)c3ncccc23)C[C@@H]2CN(c3ccnc(N4CCNCC4)c3)CCN21` [Example 32, 5-[(4R,9aS)-4-methyl-8-(2-piperazin-1-yl-4-pyridyl)-3,4,6,7,9,9a-hexahydro-1H-pyrazino[1,2-a]pyrazin-2-yl]quinoline-8-carbonitrile], the IC50 on human TLR7 worked out at 16 nM; against human TLR8, 11 nM.
For the compound `C[C@@H]1CN(c2ccc(C#N)c3ncccc23)C[C@@H]2CN(c3ccnc(N4CC(C)(N)C4)c3)CCN21` [Example 56, 5-[(4R,9aS)-8-[2-(3-amino-3-methyl-azetidin-1-yl)-4-pyridyl]-4-methyl-3,4,6,7,9,9a-hexahydro-1H-pyrazino[1,2-a]pyrazin-2-yl]quinoline-8-carbonitrile], the IC50 at human TLR7 was 13 nM; against human TLR8, 8 nM.
On the same counts, the results for `Cc1cnc(N2CCN3[C@@H](C2)CN(c2ccc(C#N)c4ncccc24)C[C@H]3C)nc1N1CCNCC1` [Example 43, 5-[(4R,9aR)-4-methyl-8-(5-methyl-4-piperazin-1-yl-pyrimidin-2-yl)-3,4,6,7,9,9a-hexahydro-1H-pyrazino[1,2-a]pyrazin-2-yl]quinoline-8-carbonitrile] are 9 nM and 13 nM.
In the case of `Cc1cc(N2CC3(CN(C)C3)C2)cnc1N1CCN2[C@@H](C1)CN(c1cc(=O)n(C)c3ncccc13)C[C@@H]2C` [Example 113, 4-[(4S,9aR)-4-methyl-8-[3-methyl-5-(6-methyl-2,6-diazaspiro[3.3]heptan-2-yl)-2-pyridyl]-3,4,6,7,9,9a-hexahydro-1H-pyrazino[1,2-a]pyrazin-2-yl]-1-methyl-1,8-naphthyridin-2-one], the IC50 at human TLR7 stood at 6 nM; against human TLR8, 142 nM.
As to `Cc1cc(N2CCN3[C@@H](C2)CN(c2ccc(C#N)c4ncccc24)C[C@H]3C)cc(N2CC(C)(N)C2)n1` [Example 73, 5-[(4R,9aS)-8-[2-(3-amino-3-methyl-azetidin-1-yl)-6-methyl-4-pyridyl]-4-methyl-3,4,6,7,9,9a-hexahydro-1H-pyrazino[1,2-a]pyrazin-2-yl]quinoline-8-carbonitrile], the IC50 at human TLR7 was 25 nM; against human TLR8, 18 nM.
Regarding `[2H]c1ccc2c(N3C[C@@H]4CN(c5ccc(CN6C[C@@H](N)[C@H](OC)C6)c(C)n5)CCN4[C@@H](C)C3)ccc(C#N)c2n1` [Example 123, 5-[(4S,9aR)-8-[5-[[(3R,4R)-3-amino-4-methoxy-pyrrolidin-1-yl]methyl]-6-methyl-2-pyridyl]-4-methyl-3,4,6,7,9,9a-hexahydro-1H-pyrazino[1,2-a]pyrazin-2-yl]-2-deuterio-quinoline-8-carbonitrile], the IC50 worked out at 27 nM at human TLR7 and 6 nM on human TLR8.
On the same counts, the results for `C[C@@H]1CN(c2ccc(C#N)c3ncccc23)C[C@@H]2CN(c3ccnc(N4CC(N)C4)c3)CCN21` [Example 41, 5-[(4R,9aS)-8-[2-(3-aminoazetidin-1-yl)-4-pyridyl]-4-methyl-3,4,6,7,9,9a-hexahydro-1H-pyrazino[1,2-a]pyrazin-2-yl]quinoline-8-carbonitrile] are 35 nM and 7 nM.

Values taken from US20220340597A1, “HEXAHYDRO-1H-PYRAZINO[1,2-A]PYRAZINE COMPOUNDS FOR THE TREATMENT OF AUTOIMMUNE DISEASE” (Hoffmann-La Roche Inc., priority 2019, published 2022).
